# Laboratory results from patent US11179348B2, “Combination comprising pterostilbene for the treatment of cancer” (FUNDACIÓN UNIVERSIDAD CATÓLICA DE VALENCIA SAN VICENTE …, priority 2015, dated 2021).
# Like-named read-outs stand apart in the source and are kept apart here. Marks after values point to notes of the source that are not given here.
# Assays:
# [1] = system: AtT-20 pituitary corticotroph tumor cells; experiment: ACTH production and POMC expression in AtT-20 cells; type: cell-based, mouse; details: results not shown
# Description: FIG. 3. Pterostilbene bioavailability in brain and the pituitary gland, and its effect on ACTH synthesis and POMC expression in AtT-20 cells. […] (B) Effect of pterostilbene on ACTH production by AtT-20 cells in a 24 h-period (measured between 24-48 h or between 48-72 h). […] After the 30 min period, culture flasks were washed out (three times with PBS) and the medium was renewed (controls received identical treatment).
# (§1) Plasma levels of ACTH (Calbiotech, Inc., Spring Valley, Calif.), corticosterone (Kamiyama Biomedical Co., Seattle, Wash.), and NORA (IBL, Hamburg, Germany) were quantified by ELISA according to the instructions of the suppliers.
# RT-PCR and detection of mRNA was performed as described above. For Western blotting (see also above) POMC mouse monoclonal antibody (clone 2B2) from Origen (Rockville, Md.) were used.
# MeWo melanoma cell line = experiment: Effect of anti-melanoma chemotherapy on viability (IC50) of in vitro growing MeWo; type: cell-based, human
# Description: (§2) Human A2058, MeWo and MelJuso melanoma cells, and mouse AtT-20 pituitary corticotroph tumor cells were from the American Type Culture Collection (ATCC). Human HEMa-LP epidermal melanocytes were from Life Technologies (Grand Island, N.Y.). […] Cells were grown in Dulbecco's modified Eagle's medium (DMEM) (Invitrogen, San Diego, Calif.), pH 7.4, supplemented with 10% heat-inactivated FCS (Biochrom KG, Berlin, Germany), 100 units/ml penicillin and 100 μg/ml streptomycin. Cells were plated, at a density of 20,000 cells/cm2, and cultured at 37° C. in a humidified atmosphere with 5% CO2. […] Cell numbers were determined using a Coulter Counter (Coulter Electronic Inc., Miami, Fla.). Cells were allowed to attach for 12 h before any treatment addition.
# A2058 melanoma cell line = experiment: Effect of anti-melanoma chemotherapy on viability (IC50) of in vitro growing A2058; type: cell-based, human
# Description: as §2
# [2] = system: MelJuso melanoma cell line; experiment: Effect of anti-melanoma chemotherapy on viability (IC50) of in vitro growing MelJuso; type: cell-based, human
# Description: as §2
# [3] = system: glucocorticoid receptors (GR); experiment: GR content of human cancer cells by [3H]-labeled ligand whole-cell binding assay; details: A2058-RFP tumors; day 35; EGCG or Curc 50 mg/kg, ± CRC
# A2058 melanoma = experiment: In vivo growth of A2058 melanoma xenografts in nu/nu mice; parameters: species or system human; details: A2058-RFP; day 35; EGCG or Curc 50 mg/kg i.v. every 48 h, ± CRC
# ACTH = experiment: Plasma ACTH levels (ELISA) in tumor-bearing mice; type: in vivo; details: A2058-bearing mice; day 35; 6 h circadian time; EGCG or Curc 50 mg/kg, ± CRC
# From the text: (§3) Measurement of ACTH, Corticosterone, and NORA Levels.
# as §1
# [4] = for deaths in the treated groups: 50 mg/kg i.v. every 48 h
# Description: FIG. 12. Effect of (−)-epigallocatechin-3-gallate (EGCG) or curcumin (Curc) treatment on (A) human melanoma (A2058) and (B) pancreatic cancer (AsPC-1) growth in vivo. EGCG or Curc were administered i.v. every 48 h for a period of 5 weeks, starting 1 week after tumor cell inoculation. For this purpose EGCG was dissolved in physiological saline, whereas Curc was dissolved in DMSO.
# corticosterone = experiment: Plasma corticosterone levels (ELISA) in tumor-bearing mice; type: in vivo; details: A2058-bearing mice; day 35; 12 h circadian time; EGCG or Curc 50 mg/kg, ± CRC
# From the text: as §3, §1
# [5] = system: A2058 cells isolated from tumor-bearing mice; experiment: Chemosensitization of cultured A2058 cells isolated from xenografts; type: cell-based, human; details: isolated A2058 cells without in vivo Pter treatment
# Description: FIG. 5. Chemosensitization effect of GSH depletion (A) or sod1-AS (B) in melanoma cells isolated from Pter-treated mice. Melanoma cells were cultured as in FIG. 1C. PAC.PBP (100 ng/ml) was added to the culture flasks 24 h after seeding. […] Data are mean values±SD for 5-6 different experiments (*p<0.01, comparing all experimental conditions vs controls).
# FIGS. 18-25. Effect of piperlongumine and I-BET762, as GSH depleting and chemosensitizing agents, in in vitro growing human melanoma, pancreatic, breast, lung, liver, prostate, ovarian, and colorectal cancer cells. Cancer cells, isolated from Pter-treated tumor-bearing mice, were cultured as indicated under Methods. Chemotherapy (0.25 μM PAC.PBP in A2058 melanoma and MDA-MB-231 breast carcinoma cells; 0.125 μM PAC.PBP and 25 μM GTB in AsPC-1 pancreatic cancer cells; 1 μM VRB and 15 μM cisPt in A459 lung carcinoma cells; 0.15 μM DXR in HepG2 hepatocellular carcinoma cells; 15 nM DCT in PC-3 prostate carcinoma cells; 0.15 μM PAC.PBP and 25 μM CarboPt in SK-OV-3 ovarian carcinoma cells; 3 μM 5-FU, 1 μM FA and 0.6 μM IRI in HT-29 colorectal carcinoma cells) was added to the cultured flasks 24 h after seeding. PL (1 μM in A2058 and AsPC-1 cells; 0.5 μM in A549 and HT-29 cells; 0.2 μM in HepG2, PC-3, and SK-OV-3 cells; 0.1 μM in MDA-MB-231 cells) or I-BET762 (0.5 μM in HT-29 cells; 0.2 μM in A2058, AsPC-1, HepG2, PC-3, and SK-OV-3 cells; 0.1 μM in A549 and MDA-MB-231 cells) were added 6 h later. Data are mean values±SD for 4-5 different experiments per cell line (*p<0.05 and **p<0.01, comparing all experimental conditions versus control. PL, piperlongumine; PAC.PBP, paclitaxel protein-bound particles; GTB, gemcitabine; DXR, doxorubicin; VRB, vinorelbin; CisPt, cisplatin; docetaxel, DCT; CarboPt, carboplatin; 5-FU, 5-fluoracil; FA, folinic acid; IRI, irinotecan; 5-FU+FA+IRI=FOLFIRI).
# Human A2058, MeWo and MelJuso melanoma cells, and mouse AtT-20 pituitary corticotroph tumor cells were from the American Type Culture Collection (ATCC). Human HEMa-LP epidermal melanocytes were from Life Technologies (Grand Island, N.Y.). Human MDA-MB-231 (triple negative: ER−, PR−, HER2−) and MCF-7 (ER+, PR+, HER2−) breast adenocarcinoma, A549 lung adenocarcinoma (NSCLC), HepG2 hepatocellular carcinoma, LNCaP (AR+) and PC-3 (AR−) prostate adenocarcinoma, SK-OV-3 epithelial ovarian carcinoma, and HT-29 and Caco-2 colorectal carcinoma cells were from the American Type Culture Collection. Cells were grown in Dulbecco's modified Eagle's medium (DMEM) (Invitrogen, San Diego, Calif.), pH 7.4, supplemented with 10% heat-inactivated FCS (Biochrom KG, Berlin, Germany), 100 units/ml penicillin and 100 μg/ml streptomycin. Cells were plated, at a density of 20,000 cells/cm2, and cultured at 37° C. in a humidified atmosphere with 5% CO2. Cells were harvested by incubation for 5 min with 0.05% (w/v) trypsin (Sigma, St. Louis, Mo.) in PBS (10 mM sodium phosphate, 4 mM KCl, 137 mM NaCl), pH 7.4, containing 0.3 mM EDTA, followed by the addition of 10% FCS to inactivate the trypsin. Cell numbers were determined using a Coulter Counter (Coulter Electronic Inc., Miami, Fla.). Cells were allowed to attach for 12 h before any treatment addition. Cellular viability was assessed as previously reported (Mena, S. et al. Clin Cancer Res 13, 2658-2666 (2007)), by measuring trypan blue exclusion and leakage of lactate dehydrogenase activity.
# Isolation of Tumor Cells from Mouse Xenografts Using Enzymatic Digestion and a double Ficoll gradient. […]
IC50 (MeWo melanoma cell line; Homo sapiens) [µM],IC50 (A2058 melanoma cell line; Homo sapiens) [µM],"IC50 ([2]; Homo sapiens, MEL-JUSO) [µM]",Compound,other results
–,–,–,"COc1cc(C=Cc2ccc(OS(=O)(=O)O)cc2)cc(OC)c1 [Pter-S, pterostilbene-4′-sulfate]",decrease of ACTH production in AtT-20 cells by pterostilbene conjugates [1]: None
–,–,–,N.N.[Cl][Pt][Cl] [Cisplatin],IC50 (MeWo melanoma cell line): 44.3 ± 5.43 µM; IC50 (A2058 melanoma cell line): > 100 µM; IC50 [2]: 11.2 ± 1.77 µM
11.1 ± 2.15,0.35 ± 0.1,0.13 ± 0.03,"CC(=O)O[C@H]1C(=O)[C@@]2(C)[C@H]([C@H](OC(=O)c3ccccc3)[C@]3(O)C[C@H](OC(=O)[C@H](O)[C@@H](NC(=O)c4ccccc4)c4ccccc4)C(C)=C1C3(C)C)[C@]1(OC(C)=O)CO[C@@H]1C[C@@H]2O [Paclitaxel, (2α,4α,5β,7β,10β,13α)-4,10-Bis(acetyloxy)-13-{[(2R,3S)-3-(benzoylamino)-2-hydroxy-3-phenylpropanoyl]oxy}-1,7-dihydroxy-9-oxo-5,20-epoxytax-11-en-2-yl benzoate]",–
–,–,–,"COc1cc(C=Cc2ccc(OC3OC(C(=O)O)C(O)C(O)C3O)cc2)cc(OC)c1 [Pter-G, Pterostilbene 4′-O-D-glucuronide]",decrease of ACTH production in AtT-20 cells by pterostilbene conjugates [1]: None
–,–,–,"O=C(O[C@@H]1Cc2c(O)cc(O)cc2O[C@@H]1c1cc(O)c(O)c(O)c1)c1cc(O)c(O)c(O)c1 [EGCG, (−)-epigallocatechin-3-gallate, reference compound]",GR number [3]: 77 ± 7 10^3 GR/cell; Tumor vol. (A2058 melanoma): 894 ± 137 mm^3; ACTH (ACTH): 215 ± 36 pg/mL plasma; deaths in the treated groups [4]: did not cause deaths; deaths in the tumor-bearing groups ([4]; 60 mg/kg i.v. every 48 h): 45%; CRC (corticosterone): 243 ± 31 ng/mL plasma
–,–,–,Diethylmaleate [DEM],Cell number ([5]; culture time 24 h): 0.49 ± 0.10 ×10^6; Cell number ([5]; culture time 36 h): 0.51 ± 0.05 ×10^6; Cell number ([5]; culture time 48 h): 0.56 ± 0.08 ×10^6; Cell number ([5]; culture time 72 h): 0.67 ± 0.06* ×10^6
> 100,> 100,56.7 ± 7.46,CN(C)/N=N/c1[nH]cnc1C(N)=O [Dacarbazine],–
> 100,> 100,> 100,Cn1nnc2c(C(N)=O)ncn2c1=O [Temozolomide],–
–,–,–,"COc1cc(/C=C/C(=O)CC(=O)/C=C/c2ccc(O)c(OC)c2)ccc1O [Curc, curcumin, reference compound]",GR number [3]: 71 ± 12 10^3 GR/cell; Tumor vol. (A2058 melanoma): 606 ± 126* mm^3; ACTH (ACTH): 113 ± 25 pg/mL plasma; deaths in the treated groups [4]: did not cause deaths; CRC (corticosterone): 161 ± 17 ng/mL plasma
> 100,> 100,66.2 ± 6.39,CCCC(CCC)C(=O)O [Valproic acid],–
> 100,> 100,1.35 ± 0.34,CN(Cc1cnc2nc(N)nc(N)c2n1)c1ccc(C(=O)N[C@@H](CCC(=O)O)C(=O)O)cc1 [Methotrexate],–
–,–,–,Arsenate,IC50 (MeWo melanoma cell line): 94.4 ± 12.4 µM; IC50 (A2058 melanoma cell line): > 100 µM; IC50 [2]: 65.5 ± 5.19 µM
12.5 ± 3.04,6.19 ± 2.06,0.15 ± 0.02,CC[C@]1(O)C[C@H]2CN(CCc3c([nH]c4ccccc34)[C@@](C(=O)OC)(c3cc4c(cc3OC)N(C=O)[C@H]3[C@@](O)(C(=O)OC)[C@H](OC(C)=O)[C@]5(CC)C=CCN6CC[C@]43[C@@H]65)C2)C1 [Vincristine],–
14.5 ± 2.17,7.65 ± 1.35,0.19 ± 0.04,CC[C@]1(O)C[C@@H]2CN(CCc3c([nH]c4ccccc34)[C@@](C(=O)OC)(c3cc4c(cc3OC)N(C)[C@H]3[C@@](O)(C(=O)OC)[C@H](OC(C)=O)[C@]5(CC)C=CCN6CC[C@]43[C@@H]65)C2)C1 [Vinblastine],–

Compound,IC50 (MeWo melanoma cell line; Homo sapiens) [µM],IC50 (A2058 melanoma cell line; Homo sapiens) [µM],"IC50 ([2]; Homo sapiens, MEL-JUSO) [µM]",other results
COc1cccc2c1C(=O)c1c(O)c3c(c(O)c1C2=O)C[C@@](O)(C(C)=O)C[C@@H]3O[C@H]1C[C@H](N)[C@H](O)[C@H](C)O1 [Daunorubicin],2.61 ± 0.51,2.4 ± 0.73,1.44 ± 0.35,–
"O=NN(CCCl)C(=O)NCCCl [BCNU, Carmustine]",> 100,> 100,0.17 ± 0.06,–
